Measurements taken from patent publication US4656166A, “Antibiotic compounds derived from cephalosporins, process for their production and pharmaceutical compositions” (Sanofi, priority 1983, dated 1987).
≈ marks a conversion by molar mass, not a printed value.

Assays:
Format in all cases: cell-based
[1] = system: Escherichia coli SOL 90; test: MIC, in vitro dilution method, Escherichia coli SOL 90 (Table III); settings: SOL90; Escherichia coli SOL 90; dilution method; read-out: MIC
Excerpt: (§1) The products of the invention have been studied as regards their pharmacological properties and, more especially, bacteriostatic action. This has been determined in vitro by the dilution method, and the study was on Gram negative strains.
(§2) Results, expressed in minimum inhibiting concentrations (MIC-- μg/ml), are collected in the following table (Table III).

[2] = system: Citrobacter RL 49; test: MIC, in vitro dilution method, Citrobacter RL 49 (Table III); settings: RL49; Citrobacter RL 49; dilution method; read-out: MIC
Excerpt: as §1, §2

[3] = system: Proteus vulgaris RL 99 bis; test: MIC, in vitro dilution method, Proteus vulgaris RL 99 bis (Table III); settings: RL99BIS; Proteus vulgaris RL 99 bis; dilution method; read-out: MIC
Excerpt: as §1, §2

[4] = system: Serratia RL 72; test: MIC, in vitro dilution method, Serratia RL 72 (Table III); settings: RL72
Excerpt: as §1, §2

[5] = system: Klebsiella RO 30; test: MIC, in vitro dilution method, Klebsiella RO 30 (Table III); settings: RO30; Klebsiella RO 30; dilution method; read-out: MIC
Excerpt: as §1, §2

[6] = system: Enterobacter RO 154; test: MIC, in vitro dilution method, Enterobacter RO 154 (Table III); settings: RO154; Enterobacter RO 154; dilution method; read-out: MIC
Excerpt: as §1, §2

[7] = system: Pseudomonas RL 112; test: MIC, in vitro dilution method, Pseudomonas RL 112 (Table III); settings: RL112
Excerpt: as §1, §2

Row | SMILES | MIC [1] [mg/L] | MIC [2] [mg/L] | MIC [3] [mg/L] | MIC [4] [mg/L] | MIC [5] [mg/L] | MIC [6] [mg/L] | MIC [7] [mg/L]
1 | CNCCCCC(=O)OCC1=C(C(=O)O)N2C(=O)C(NC(=O)/C(=N\OC(C)(C)C(=O)O)c3csc(N)n3)C2[S+]([O-])C1 (centres unmarked) [42 029] | 0.25 (≈ 0.407 µM) | 0.25 (≈ 0.407 µM) | ≤ 0.12 | 0.5 (≈ 0.813 µM) | 0.25 (≈ 0.407 µM) | 2 (≈ 3.25 µM) | 8 (≈ 13 µM)
2 | CC(CN)C(=O)OCC1=C(C(=O)O)N2C(=O)C(NC(=O)C(=NOC(C)(C)C(=O)O)c3csc(N)n3)C2[S+]([O-])C1 (centres unmarked) [42 025] | 0.5 (≈ 0.852 µM) | 0.5 (≈ 0.852 µM) | 0.25 (≈ 0.426 µM) | 1 (≈ 1.7 µM) | 0.5 (≈ 0.852 µM) | 4 (≈ 6.82 µM) | 4 (≈ 6.82 µM)
3 | CC(CCN)C(=O)OCC1=C(C(=O)O)N2C(=O)C(NC(=O)C(=NOC3(C(=O)O)CCC3)c3csc(N)n3)C2[S+]([O-])C1 (centres unmarked) [42 209] | 0.25 (≈ 0.408 µM) | ≤ 0.12 | ≤ 0.12 | 0.5 (≈ 0.816 µM) | 0.25 (≈ 0.408 µM) | ≤ 0.12 | 4 (≈ 6.53 µM)
4 | CC(ON=C(C(=O)NC1C(=O)N2C(C(=O)O)=C(CSC(=O)C3CCNCC3)C[S+]([O-])C12)c1csc(N)n1)C(=O)O (centres unmarked) [compound 42218] | 0.5 (≈ 0.813 µM) | 0.25 (≈ 0.407 µM) | 0.5 (≈ 0.813 µM) | 2 (≈ 3.25 µM) | 0.5 (≈ 0.813 µM) | 0.5 (≈ 0.813 µM) | 64 (≈ 104 µM)
5 | CC(C)(ON=C(C(=O)NC1C(=O)N2C(C(=O)O)=C(COC(=O)CC(N)c3ccccc3)C[S+]([O-])C12)c1csc(N)n1)C(=O)O (centres unmarked) [42 026] | 0.5 (≈ 0.771 µM) | 0.25 (≈ 0.385 µM) | ≤ 0.12 | 1 (≈ 1.54 µM) | 0.25 (≈ 0.385 µM) | 4 (≈ 6.17 µM) | 8 (≈ 12.3 µM)
6 | CC(O)C(N)C(=O)OCC1=C(C(=O)O)N2C(=O)C(NC(=O)C(=NOC(C)(C)C(=O)O)c3csc(N)n3)C2[S+]([O-])C1 (centres unmarked) [41 885] | 1 (≈ 1.66 µM) | 4 (≈ 6.64 µM) | 0.5 (≈ 0.83 µM) | 4 (≈ 6.64 µM) | 0.5 (≈ 0.83 µM) | 8 (≈ 13.3 µM) | 8 (≈ 13.3 µM)
7 | CCC(C)C(N)C(=O)OCC1=C(C(=O)O)N2C(=O)C(NC(=O)C(=NOC(C)(C)C(=O)O)c3csc(N)n3)C2[S+]([O-])C1 (centres unmarked) [41 860] | 2 (≈ 3.25 µM) | 1 (≈ 1.63 µM) | 0.5 (≈ 0.813 µM) | 4 (≈ 6.51 µM) | 0.5 (≈ 0.813 µM) | 8 (≈ 13 µM) | 16 (≈ 26 µM)
8 | NCc1ccc(C(=O)SCC2=C(C(=O)O)N3C(=O)C(NC(=O)C(=NOC4(C(=O)O)CCC4)c4csc(N)n4)C3[S+]([O-])C2)cc1 (centres unmarked) [compound 42222] | 0.5 (≈ 0.754 µM) | ≤ 0.12 | ≤ 0.12 | 1 (≈ 1.51 µM) | 0.5 (≈ 0.754 µM) | 0.5 (≈ 0.754 µM) | 8 (≈ 12.1 µM)
9 | C[C@@H](N)C(=O)OCC1=C(C(=O)O)N2C(=O)C(NC(=O)/C(=N\OC(C)(C)C(=O)O)c3csc(N)n3)C2[S+]([O-])C1 (some centres unmarked) [41 891] | 0.5 (≈ 0.873 µM) | 0.5 (≈ 0.873 µM) | 0.5 (≈ 0.873 µM) | 4 (≈ 6.99 µM) | 0.5 (≈ 0.873 µM) | 8 (≈ 14 µM) | 8 (≈ 14 µM)
10 | CC(C)(O/N=C(\C(=O)NC1C(=O)N2C(C(=O)O)=C(COC(=O)c3cccc(NC(=O)CCN)c3)C[S+]([O-])C12)c1csc(N)n1)C(=O)O (centres unmarked) [42 465] | ≤ 0.125 | ≤ 0.125 | ≤ 0.125 | 2 (≈ 2.89 µM) | 0.5 (≈ 0.723 µM) | 0.5 (≈ 0.723 µM) | 8 (≈ 11.6 µM)
11 | NCc1cccc(C(=O)SCC2=C(C(=O)O)N3C(=O)C(NC(=O)C(=NOC4(C(=O)O)CCC4)c4csc(N)n4)C3[S+]([O-])C2)c1 (centres unmarked) [compound 42532] | 0.5 (≈ 0.754 µM) | 0.25 (≈ 0.377 µM) | ≤ 0.125 | 1 (≈ 1.51 µM) | 0.25 (≈ 0.377 µM) | 0.5 (≈ 0.754 µM) | 8 (≈ 12.1 µM)
12 | CNCc1ccc(C(=O)OCC2=C(C(=O)O)N3C(=O)C(NC(=O)/C(=N\OC4(C(=O)O)CCC4)c4csc(N)n4)C3[S+]([O-])C2)cc1 (centres unmarked) [42 464] | ≤ 0.125 | ≤ 0.125 | ≤ 0.125 | 0.5 (≈ 0.757 µM) | ≤ 0.125 | ≤ 0.125 | 4 (≈ 6.05 µM)
13 | Nc1nc(C(=NOC2(C(=O)O)CCC2)C(=O)NC2C(=O)N3C(C(=O)O)=C(CSC(=O)C4CCNCC4)C[S+]([O-])C23)cs1 (centres unmarked) [compound 42219] | 0.5 (≈ 0.78 µM) | ≤ 0.12 | ≤ 0.12 | 1 (≈ 1.56 µM) | 0.5 (≈ 0.78 µM) | 0.5 (≈ 0.78 µM) | 4 (≈ 6.24 µM)
14 | CC(C)(O/N=C(\C(=O)NC1C(=O)N2C(C(=O)O)=C(COC(=O)[C@@H](N)CCCCN)C[S+]([O-])C12)c1csc(N)n1)C(=O)O (some centres unmarked) [41 888] | 2 (≈ 3.18 µM) | 2 (≈ 3.18 µM) | 1 (≈ 1.59 µM) | 8 (≈ 12.7 µM) | 1 (≈ 1.59 µM) | 8 (≈ 12.7 µM) | 8 (≈ 12.7 µM)
15 | CC(C)(O/N=C(\C(=O)NC1C(=O)N2C(C(=O)O)=C(COC(=O)CC3CCCCN3)C[S+]([O-])C12)c1csc(N)n1)C(=O)O (centres unmarked) [42 371] | 0.5 (≈ 0.798 µM) | 0.25 (≈ 0.399 µM) | ≤ 0.125 | 0.5 (≈ 0.798 µM) | 0.25 (≈ 0.399 µM) | 0.25 (≈ 0.399 µM) | 8 (≈ 12.8 µM)
16 | CSCC[C@H](N)C(=O)OCC1=C(C(=O)O)N2C(=O)C(NC(=O)/C(=N\OC(C)(C)C(=O)O)c3csc(N)n3)C2[S+]([O-])C1 (some centres unmarked) [41 887] | 2 (≈ 3.16 µM) | 4 (≈ 6.32 µM) | 0.25 (≈ 0.395 µM) | 4 (≈ 6.32 µM) | 0.5 (≈ 0.79 µM) | 8 (≈ 12.6 µM) | 8 (≈ 12.6 µM)
17 | NCc1cccc(C(=O)OCC2=C(C(=O)O)N3C(=O)C(NC(=O)/C(=N\OC4(C(=O)O)CCC4)c4csc(N)n4)C3[S+]([O-])C2)c1 (centres unmarked) [42 462] | 0.25 (≈ 0.387 µM) | ≤ 0.125 | ≤ 0.125 | 0.5 (≈ 0.773 µM) | ≤ 0.125 | ≤ 0.125 | 4 (≈ 6.19 µM)
